In patent US20220251084A1, “PROGRANULIN MODULATORS AND METHODS OF USING THE SAME” (ARKUDA THERAPEUTICS, priority 2019, published 2022):
Like-named read-outs stand apart in the source and are kept apart here. Each block holds one compound with its values, some of them ahead of it.

System: progranulin (PGRN) secretion, BV-2 cells
Assay: PGRN assay: progranulin induction cellular assay (ELISA of secreted mouse PGRN)
Format: cell-based
Method: Cellular Assays: To measure the efficacy of compounds, a progranulin induction cellular assay in mouse primary microglia (pMG), primary cortical neurons, and BV-2 cell lines is used. BV-2 cells are split the day before plating into a 96 well plate format at approximately 80%. Cells should be plated the day before and allowed for 1 hour attachment period and for 16 hour incubation. […] Standard ELISA kits to measure PGRN are available from vendors such as Adipogen, R&D, and Biovendor.

[1] = Mus musculus, BV-2, PGRN assay, Table C, secreted mouse PGRN in cell culture medium, ELISA

EC50 [1]: 1.18 µM
SMILES: CN1C[C@@H]2[C@@H](COC(=O)N3CCc4ccccc4[C@@H]3c3ccc(F)cc3)[C@@H]2C1 [Compound 2023]

SMILES: CN1CCC([C@H]2c3ccccc3CCN2C(=O)O[C@@H]2CN3CCC2CC3)CC1=O (stereo partly drawn) [Compound 2024, (S)-quinuclidin-3-yl 1-(1-methyl-2-oxopiperidin-4-yl)-3,4-dihydroisoquinoline-2(1H)-carboxylate]
EC50: > 10 µM

SMILES: CS(=O)(=O)c1ccc2c(c1)CCN(C(=O)O[C@@H]1CN3CCC1CC3)[C@H]2c1ccc(F)cc1 [Compound 2025]
EC50 (Mus musculus, BV-2): > 10 µM

SMILES: CS(=O)(=O)c1ccc2c(c1)CCN(C(=O)O[C@@H]1CN3CCC1CC3)[C@@H]2c1ccc(F)cc1 [Compound 2026]
EC50 (Mus musculus, BV-2): > 10 µM

SMILES: CO[C@@H](CC12CCN(CC1)CC2)C(=O)N1CCc2ccccc2[C@@H]1c1ccc(F)cc1 [Compound 2027]
EC50 [1]: > 10 µM

SMILES: CO[C@H](CC12CCN(CC1)CC2)C(=O)N1CCc2ccccc2[C@@H]1c1ccc(F)cc1 [Compound 2028]
EC50 [1]: > 10 µM

SMILES: COC(=O)c1ccc2c(c1)[C@H](c1ccc(F)cc1)N(C(=O)O[C@@H]1CN3CCC1CC3)CC2 [Compound 2029]
EC50 (Mus musculus, BV-2): > 10 µM

SMILES: CS(=O)(=O)c1ccc2c(c1)[C@H](c1ccc(F)cc1)N(C(=O)O[C@@H]1CN3CCC1CC3)CC2 [Compound 2031]
EC50 (Mus musculus, BV-2): 5.75 µM

SMILES: CS(=O)(=O)c1ccc2c(c1)[C@@H](c1ccc(F)cc1)N(C(=O)O[C@@H]1CN3CCC1CC3)CC2 [Compound 2032]
EC50 (Mus musculus, BV-2): > 10 µM

SMILES: N#Cc1ccc2c(c1)CCN(C(=O)O[C@@H]1CN3CCC1CC3)[C@H]2c1ccc(F)cc1 [Compound 2033]
EC50: > 10 µM

SMILES: N#Cc1ccc2c(c1)CCN(C(=O)O[C@@H]1CN3CCC1CC3)[C@@H]2c1ccc(F)cc1 [Compound 2034]
EC50: 6.07 µM

SMILES: N#Cc1ccc2c(c1)[C@H](c1ccc(F)cc1)N(C(=O)O[C@@H]1CN3CCC1CC3)CC2 [Compound 2035]
EC50: > 10 µM

SMILES: N#Cc1ccc2c(c1)[C@@H](c1ccc(F)cc1)N(C(=O)O[C@@H]1CN3CCC1CC3)CC2 [Compound 2036]
EC50: > 10 µM

SMILES: O=C(CCC12CCN(CC1)CC2)N1CCc2ccccc2[C@@H]1c1ccc(F)cc1 [Compound 2037]
EC50 [1]: > 8.09 µM

SMILES: N#Cc1ccc2c(c1)[C@H](c1ccc(F)cc1)N(C(=O)N[C@@H]1CN3CCC1CC3)CC2 [Compound 2038, 7-cyano-1-(4-fluorophenyl)-N—((S)-quinuclidin-3-yl)-3,4-dihydroisoquinoline-2(1H)-carboxamide]
EC50 [1]: > 10 µM

SMILES: N#Cc1ccc2c(c1)[C@@H](c1ccc(F)cc1)N(C(=O)N[C@@H]1CN3CCC1CC3)CC2 [Compound 2039, 7-cyano-1-(4-fluorophenyl)-N—((S)-quinuclidin-3-yl)-3,4-dihydroisoquinoline-2(1H)-carboxamide]
EC50 [1]: > 10 µM

SMILES: CS(=O)(=O)c1ccc2c(c1)CCN(C(=O)N[C@@H]1CN3CCC1CC3)[C@H]2c1ccc(F)cc1 [Compound 2040, 1-(4-fluorophenyl)-6-(methylsulfonyl)-N—((S)-quinuclidin-3-yl)-3,4-dihydroisoquinoline-2(1H)-carboxamide]
EC50 [1]: > 10 µM

SMILES: CS(=O)(=O)c1ccc2c(c1)CCN(C(=O)N[C@@H]1CN3CCC1CC3)[C@@H]2c1ccc(F)cc1 [Compound 2041, 1-(4-fluorophenyl)-6-(methylsulfonyl)-N—((S)-quinuclidin-3-yl)-3,4-dihydroisoquinoline-2(1H)-carboxamide]
EC50 [1]: > 10 µM

EC50 [1]: 3.2 µM
SMILES: CN1CCS(=O)(=O)[C@H](CC(=O)N2CCc3ccccc3[C@@H]2c2ccc(F)cc2)C1 [Compound 2042]

SMILES: COC(=O)c1ccc2c(c1)[C@H](c1ccc(F)cc1)N(C(=O)OCC13CCN(CC1)CC3)CC2 [Compound 2044]
EC50 [1]: 4.71 µM

SMILES: COC(=O)c1ccc2c(c1)[C@@H](c1ccc(F)cc1)N(C(=O)OCC13CCN(CC1)CC3)CC2 [Compound 2045]
EC50 [1]: > 10 µM

SMILES: COCCOCCOc1ccc(COc2ccc([C@H]3c4ccccc4CCN3C(=O)OCC34CCN(CC3)CC4)cc2)cc1 [Compound 2046]
EC50 [1]: 1.72 µM

SMILES: COCCOCCOc1ccc(COc2ccc([C@@H]3c4ccccc4CCN3C(=O)OCC34CCN(CC3)CC4)cc2)cc1 [Compound 2047]
EC50 [1]: > 2.69 µM

EC50 [1]: 1.9 µM
SMILES: O=C(N[C@@H]1CCN2CCC[C@H]12)N1CCc2ccccc2[C@@H]1c1ccc(F)cc1 [Compound 2048]

EC50 [1]: 3.9 µM
SMILES: O=C(N[C@H]1CCN2CCC[C@H]12)N1CCc2ccccc2[C@@H]1c1ccc(F)cc1 [Compound 2050]

EC50 [1]: > 10 µM
SMILES: O=C(N[C@H]1CCN2CCC[C@@H]12)N1CCc2ccccc2[C@@H]1c1ccc(F)cc1 [Compound 2051]

SMILES: C#CCOc1ccc2c(c1)[C@H](c1ccc(F)cc1)N(C(=O)OCC13CCN(CC1)CC3)CC2 [Compound 2052, (S)-quinuclidin-4-ylmethyl 1-(4-fluorophenyl)-7-(prop-2-ynyloxy)-3,4-dihydroisoquinoline-2(1H)-carboxylate]
EC50 [1]: 6.82 µM

SMILES: O=C(O[C@@H]1CN2CCC1CC2)N1CCc2cccnc2[C@@H]1c1ccc(F)cc1 [Compound 2054, (S)-quinuclidin-3-yl 8-(4-fluorophenyl)-5,6-dihydro-1,7-naphthyridine-7(8H)-carboxylate]
EC50: 4.74 µM

SMILES: O=C(O[C@@H]1CN2CCC1CC2)N1CCc2cccnc2[C@H]1c1ccc(F)cc1 [Compound 2055, (S)-quinuclidin-3-yl 8-(4-fluorophenyl)-5,6-dihydro-1,7-naphthyridine-7(8H)-carboxylate]
EC50: 3.3 µM

SMILES: CS(=O)(=O)c1ccc2c(c1)[C@H](c1ccc(F)cc1)N(C(=O)N[C@@H]1CN3CCC1CC3)CC2 [Compound 2056]
EC50 [1]: > 10 µM

SMILES: CS(=O)(=O)c1ccc2c(c1)[C@@H](c1ccc(F)cc1)N(C(=O)N[C@@H]1CN3CCC1CC3)CC2 [Compound 2057]
EC50 [1]: > 10 µM

SMILES: O=S(=O)(CCC12CCN(CC1)CC2)N1CCc2ccccc2[C@@H]1c1ccc(F)cc1 [Compound 2058, (S)-4-(2-(1-(4-fluorophenyl)-3,4-dihydroisoquinolin-2(1H)-ylsulfonyl)ethyl)quinuclidine]
EC50 [1]: 3 µM

SMILES: CNC(=O)c1ccc2c(c1)[C@H](c1ccc(F)cc1)N(C(=O)OCC13CCN(CC1)CC3)CC2 [Compound 2059]
EC50 [1]: > 10 µM

SMILES: CNC(=O)c1ccc2c(c1)[C@@H](c1ccc(F)cc1)N(C(=O)OCC13CCN(CC1)CC3)CC2 [Compound 2060]
EC50 [1]: > 10 µM

SMILES: C#CCOc1ccc2c(c1)CCN(C(=O)N[C@@H]1CN3CCC1CC3)[C@H]2c1ccc(F)cc1 [Compound 2063]
EC50 [1]: > 10 µM

SMILES: C#CCOc1ccc2c(c1)CCN(C(=O)N[C@@H]1CN3CCC1CC3)[C@@H]2c1ccc(F)cc1 [Compound 2064]
EC50 [1]: > 10 µM

SMILES: CNC(=O)c1ccc2c(c1)[C@H](c1ccc(F)cc1)N(C(=O)O[C@@H]1CN3CCC1CC3)CC2 [Compound 2065]
EC50 (Mus musculus, BV-2): > 10 µM

SMILES: CNC(=O)c1ccc2c(c1)[C@@H](c1ccc(F)cc1)N(C(=O)O[C@@H]1CN3CCC1CC3)CC2 [Compound 2066]
EC50 (Mus musculus, BV-2): > 10 µM

SMILES: CN1C2COCC1CC(OC(=O)N1CCc3ccccc3[C@@H]1c1ccc(F)cc1)C2 (stereo partly shown) [Compound 2067, (1 S)-9′-methyl-3′-oxa-9′-azabicyclo[3.3.1]nonan-7′-yl-1-(4-fluorophenyl)-3,4-dihydroisoquinoline-2(1H)-carboxylate]
EC50 [1]: 0.24 µM

SMILES: COC(=O)c1ccc2c(c1)CCN(C(=O)NCC13CCN(CC1)CC3)[C@H]2c1ccc(F)cc1 [Compound 2068]
EC50 [1]: 3.37 µM

SMILES: COC(=O)c1ccc2c(c1)CCN(C(=O)NCC13CCN(CC1)CC3)[C@@H]2c1ccc(F)cc1 [Compound 2069]
EC50 [1]: 4.13 µM

SMILES: CNC(=O)c1ccc2c(c1)CCN(C(=O)NCC13CCN(CC1)CC3)[C@H]2c1ccc(F)cc1 [Compound 2070]
EC50 [1]: 3.62 µM

SMILES: CNC(=O)c1ccc2c(c1)CCN(C(=O)NCC13CCN(CC1)CC3)[C@@H]2c1ccc(F)cc1 [Compound 2071]
EC50 [1]: 3.72 µM

SMILES: COC(=O)c1ccc2c(c1)CCN(C(=O)OCC13CCN(CC1)CC3)[C@H]2c1ccc(F)cc1 [Compound 2072]
EC50 [1]: 8.08 µM

SMILES: COC(=O)c1ccc2c(c1)CCN(C(=O)OCC13CCN(CC1)CC3)[C@@H]2c1ccc(F)cc1 [Compound 2073]
EC50 [1]: > 10 µM

SMILES: O=C(C(O)[C@@H]1CN2CCC1CC2)N1CCc2ccccc2[C@@H]1c1ccc(F)cc1 (stereo partly drawn) [Compound 2074, 1-((S)-1-(4-fluorophenyl)-3,4-dihydroisoquinolin-2(1H)-yl)-2-hydroxy-2-(quinuclidin-3-yl)ethanone]
EC50 [1]: 3.4 µM

SMILES: C#CCOc1ccc2c(c1)CCN(C(=O)OCC13CCN(CC1)CC3)[C@H]2c1ccc(F)cc1 [Compound 2078]
EC50 [1]: 5.35 µM

SMILES: C#CCOc1ccc2c(c1)CCN(C(=O)OCC13CCN(CC1)CC3)[C@@H]2c1ccc(F)cc1 [Compound 2079]
EC50 [1]: 4.83 µM

SMILES: CNC(=O)c1ccc2c(c1)CCN(C(=O)OCC13CCN(CC1)CC3)[C@H]2c1ccc(F)cc1 [Compound 2080]
EC50 [1]: > 10 µM

SMILES: CNC(=O)c1ccc2c(c1)CCN(C(=O)OCC13CCN(CC1)CC3)[C@@H]2c1ccc(F)cc1 [Compound 2081]
EC50 [1]: > 10 µM

SMILES: C#CCOc1ccc2c(c1)CCN(C(=O)O[C@@H]1CN3CCC1CC3)[C@H]2c1ccc(F)cc1 [Compound 2082]
EC50 (Mus musculus, BV-2): 7.46 µM

SMILES: C#CCOc1ccc2c(c1)CCN(C(=O)O[C@@H]1CN3CCC1CC3)[C@@H]2c1ccc(F)cc1 [Compound 2083]
EC50 (Mus musculus, BV-2): 6.07 µM

SMILES: C#CCOc1ccc2c(c1)CCN(C(=O)NCC13CCN(CC1)CC3)[C@H]2c1ccc(F)cc1 [Compound 2084]
EC50 [1]: > 10 µM

SMILES: C#CCOc1ccc2c(c1)CCN(C(=O)NCC13CCN(CC1)CC3)[C@@H]2c1ccc(F)cc1 [Compound 2085]
EC50 [1]: 4.99 µM

SMILES: COC(=O)c1ccc2c(c1)CCN(C(=O)O[C@@H]1CN3CCC1CC3)[C@H]2c1ccc(F)cc1 [Compound 2086]
EC50 (Mus musculus, BV-2): > 10 µM

SMILES: COC(=O)c1ccc2c(c1)CCN(C(=O)O[C@@H]1CN3CCC1CC3)[C@@H]2c1ccc(F)cc1 [Compound 2087]
EC50 (Mus musculus, BV-2): > 10 µM

SMILES: COC(=O)c1ccc2c(c1)CCN(C(=O)N[C@@H]1CN3CCC1CC3)[C@@H]2c1ccc(F)cc1 [Compound 2089]
EC50 [1]: > 10 µM

SMILES: CNC(=O)c1ccc2c(c1)CCN(C(=O)N[C@@H]1CN3CCC1CC3)[C@H]2c1ccc(F)cc1 [Compound 2090]
EC50 [1]: > 10 µM
